This note sets out measurements from patent publication US20240284907A1, “NOVEL DERIVATIVES OF NON-CODED AMINO ACIDS AND THEIR USE AS HERBICIDES” (FortePhest LTD., priority 2021, published 2024).

Holding throughout (assay type): in vivo
Test [1] concerns Seeds of Lettuce R. (Super-Jericho). Description: Filter paper bioassay with lettuce seeds: germination and early plant development, Minimal Effective Concentration (MEC). To be noted: lettuce seeds on filter paper, 0 to 1 mmol/l, visually assessed after 6 days. In outline:
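Visual scoring on day 6 of radicle and shoot growth gives the MEC, the lowest dose deviating from control (no germination or malformation). Seeds (lettuce Super-Jericho, 10 per plate) sat on filter paper with 0–1 mmol/l aqueous compound, 48 h dark then 4 days 6/18 dark/light, in at least two repeats.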

The test system of test [2] is Romaine lettuce (Lactuca sativa L.) plants. Description: Post-emergence herbicidal activity on potted Romaine lettuce plants (soil or foliar application). To be noted: lettuce at 2 to 3 leaves, two weeks after treatment. As to the method:
The tests were performed on Romaine lettuce (Lactuca sativa L.) plants at the stage 2 to 3 leaves. The plants were grown in mini-pots packed with soil, dimensions 2×2×5 cm, one plant per mini-pot. Test compounds were dissolved in 0.1% aqueous solution water solution of Silwet adjuvant to final concentrations ranging from 0 (Control) to 0.0001%. The test compounds were applied on soil (1 ml per pot) or foliar with airbrush (0.1 ml per pot). Each concentration was tested on 20 plants. Two weeks after the treatment the herbicidal effects of the respective test material were visually evaluated (aboveground part and roots. Then the aboveground part of the plants was neatly cut and weighed (wet weight) to assess the growth inhibition caused by the test compound. The growth inhibition (GI) was calculated as following: […]
Where Mt and Mc are median wet weight of treated and control plants, respectively. In the context of the invention, the herbicidal effect was assessed by concentration of the compound causing more than 85% of Growth Inhibition (GI) or irreversible damage of the plants (Table 3). Herbicidal activity of selected DHAAs is summarized in Table 4 (soil application) and Table 5 (Foliar application).

The subject of test [3] is Seeds of Lettuce R. (Super-Jericho). Description: Filter paper bioassay with lettuce seeds: germination, Fully Effective Concentration (FEC). The settings on record: lowest concentration mostly preventing lettuce seed germination, assessed after 6 days. The text has this: Materials: Seeds of Lettuce R. (Super-Jericho, non-sterilized) were obtained from Ben Shahar Moshe Ltd., 99% purity. The test compounds listed in the Table 2 below were synthetized de novo or purchased from different vendors.
Filter Paper Bioassays with Lettuce seeds: The protocol is following Bertin et al. 2009 and Movellan et al. 2014 with specified modifications as described below.
Seeds were placed on Whatman no. 1 filter paper (Whatman, Middlesex, U.K.) in Petri dishes (10 seeds per plate) with 2.0 ml of aqueous solution of a test material in concentration ranged from 0 (control) to 1 mmol/l were placed in a tray tilted at 45°. The trays were kept in dark for 48 hours and then transferred to the growth chamber with 6/18 dark/light cycle for 4 days. Each experiment was performed at least with two repeats.
The development of plants' radicle and shoots were visually assessed 6 days after the beginning of the test to determine Fully Effective Concentration (FEC) of a test material. In the context of the invention, FED is defined as the lowest concentration level of a test material that mostly preventing seeds germination.

Take “benzyl (6-bromopyridin-2-yl)(difluoro)acetate [compound 6646]”: the “Score (activity score of Minimal Effective Concentration, MEC)” value in test [1] is reported as “Strong (0.01 mM)”. Moreover, in test [2] (soil application), the “Score (test material causing more than 85% of Growth Inhibition or irreversible plant damage)” value is recorded as “strong (0.01 to 0.05)”.

Consider `O=C(O)C(F)(F)c1cccc(Cl)n1` [compound 6667, (6-chloropyridin-2-yl)(difluoro)acetic acid], for which, in test [1], the “Score (activity score of Minimal Effective Concentration, MEC)” value was “Strong (0.01 mM)”. Further, the “Score (test material causing more than 85% of Growth Inhibition or irreversible plant damage)” value in test [2] (soil application) is “strong (0.01 to 0.05)”.

As for `N#Cc1cscc1C(F)(F)C(=O)O` [compound 5779, (4-cyanothiophen-3-yl)(difluoro)acetic acid], in test [1], the “Score (activity score of Minimal Effective Concentration, MEC)” value is recorded as “Strong (0.01 mM)”. The “FEC (Fully Effective Concentration)” value in test [3] stood at 1.000 mM.

For the molecule `O=C(O)/C(F)=C(\F)c1ccc(Br)nc1` [compound 6638, (2E)-3-(6-bromopyridin-3-yl)-2,3-difluoroprop-2-enoic acid], the “Score (activity score of Minimal Effective Concentration, MEC)” value in test [1] is reported as “Moderate (0.1 mM)”. In addition, the “Score (test material causing more than 85% of Growth Inhibition or irreversible plant damage)” value in test [2] (soil application) is “moderate (0.5)”.

Consider “2,2-difluoro-2-[5-(trifluoromethyl)-1,3-thiazol-2-yl]acetic acid [compound 5710]”, for which the “Score (activity score of Minimal Effective Concentration, MEC)” value in test [1] is recorded as “Strong (0.01 mM)”. Further, in test [3], the “FEC (Fully Effective Concentration)” value amounted to 0.100 mM.

As for “(2-bromopyridin-4-yl)acetic acid [compound 678]”, the “Score (activity score of Minimal Effective Concentration, MEC)” value in test [1] is “Strong (0.01 mM)”. For the same molecule, the “Score (test material causing more than 85% of Growth Inhibition or irreversible plant damage)” value in test [2] (soil application) is recorded as “weak (1.0)”.

Consider `NC(=O)Cc1cc(Cl)sc1Cl` [compound 5609, 2-(2,5-dichlorothiophen-3-yl)acetamide], for which, in test [1], the “Score (activity score of Minimal Effective Concentration, MEC)” value is given as “Strong (0.01 mM)”. Also, in test [3], the “FEC (Fully Effective Concentration)” value amounted to 1.000 mM.

Turning to “2-(5-chlorothiophen-3-yl)-2,2-difluoroacetic acid [compound 5625]”, the “Score (activity score of Minimal Effective Concentration, MEC)” value in test [1] is recorded as “Strong (0.01 mM)”. In addition, the “Score (test material causing more than 85% of Growth Inhibition or irreversible plant damage)” value in test [2] (foliar application) and in test [2] (soil application) was “strong (0.01 to 0.05)” each time.

Turning to `O=C(O)/C=C/c1sc(Cl)nc1Cl` [compound 5622, (2E)-3-(2,4-dichloro-1,3-thiazol-5-yl)prop-2-enoic acid], the “Score (activity score of Minimal Effective Concentration, MEC)” value in test [1] is “Moderate (0.1 mM)”. In test [3], the “FEC (Fully Effective Concentration)” value is given as 1.000 mM.

Take “2-oxo-2-phenylethyl(2-chloro-1,3-thiazol-4-yl)(difluoro)acetate [compound 5741]”: in test [1], the “Score (activity score of Minimal Effective Concentration, MEC)” value was “very strong”. Further, in test [3], the “FEC (Fully Effective Concentration)” value is given as 0.050 mM.

Take `O=C(Cc1cc(Cl)sc1Cl)OCc1ccccc1` [compound 5669, benzyl 2-(2,5-dichlorothiophen-3-yl)acetate]: the “Score (test material causing more than 85% of Growth Inhibition or irreversible plant damage)” value in test [2] (foliar application) and in test [2] (soil application) was “strong (0.01 to 0.05)” each time.

“(2E)-3-(2-bromopyridin-4-yl)-N-(4-hydroxyphenyl)prop-2-enamide [compound 6610]”: the “Score (activity score of Minimal Effective Concentration, MEC)” value in test [1] is listed as “Moderate (0.1 mM)”. Further, the “Score (test material causing more than 85% of Growth Inhibition or irreversible plant damage)” value in test [2] (soil application) was “moderate (0.5)”.

In the case of `CC(=O)NCCc1cc(Cl)sc1Cl` [compound 5629, N-[2-(2,5-dichlorothiophen-3-yl)ethyl]acetamide], the “Score (test material causing more than 85% of Growth Inhibition or irreversible plant damage)” value in test [2] (soil application) is reported as “moderate (0.5)”.

Regarding `NC(=O)CCCc1cc(Cl)sc1Cl` [compound 5600, 4-(2,5-dichlorothiophen-3-yl)butanamide], in test [1], the “Score (activity score of Minimal Effective Concentration, MEC)” value is “Weak (Higher than 0.1 mM)”. In addition, the “Score (test material causing more than 85% of Growth Inhibition or irreversible plant damage)” value in test [2] (soil application) is on record as “moderate (0.5)”.

On to “2-(2-chloro-1,3-thiazol-4-yl)-2,2-difluoroethan-1-ol [compound 5724]”, for which the “Score (activity score of Minimal Effective Concentration, MEC)” value in test [1] is on record as “Moderate (0.1 mM)”. Also, the “Score (test material causing more than 85% of Growth Inhibition or irreversible plant damage)” value in test [2] (soil application) was “strong (0.01 to 0.05)”.

For `O=C(Cc1csc(Cl)n1)OCc1ccccc1` [compound 5758, benzyl 2-(2-chloro-1,3-thiazol-4-yl)acetate], in test [1], the “Score (activity score of Minimal Effective Concentration, MEC)” value was “Strong (0.01 mM)”. Further, the “FEC (Fully Effective Concentration)” value in test [3] amounted to 0.100 mM.

As for `CCOC(=O)C(F)(F)c1csc(C(F)(F)F)n1` [compound 5781], the “Score (activity score of Minimal Effective Concentration, MEC)” value in test [1] was “Strong (0.01 mM)”. In addition, the “Score (test material causing more than 85% of Growth Inhibition or irreversible plant damage)” value in test [2] (foliar application) is given as “strong (0.01 to 0.05)”.

For `O=C(O)CNC(=O)C(F)(F)c1cc(Cl)sc1Cl` [compound 5644, [2-(2,5-dichlorothiophen-3-yl)(difluoro)acetamido]acetic acid], the “Score (activity score of Minimal Effective Concentration, MEC)” value in test [1] is given as “Strong (0.01 mM)”. In test [3], the “FEC (Fully Effective Concentration)” value was determined as 1.000 mM.

Regarding “ethyl 2-(2-bromo-1,3-thiazol-4-yl)acetate [compound 5663]”, in test [1], the “Score (activity score of Minimal Effective Concentration, MEC)” value is “Moderate (0.1 mM)”. Also, the “Score (test material causing more than 85% of Growth Inhibition or irreversible plant damage)” value in test [2] (foliar application) was “strong (0.01 to 0.05)”; in test [2] (soil application), “moderate (0.5)”.

In the case of “2-(2,5-dichlorothiophen-3-yl)-2,2-difluoroacetamide [compound 5636]”, the “Score (activity score of Minimal Effective Concentration, MEC)” value in test [1] is reported as “Strong (0.01 mM)”. Also, in test [3], the “FEC (Fully Effective Concentration)” value came out at 0.100 mM.

Turning to `NCCCCc1cc(Cl)sc1Cl` [compound 5657, 4-(2,5-dichlorothiophen-3-yl)butan-1-amine], the “Score (activity score of Minimal Effective Concentration, MEC)” value in test [1] was “Moderate (0.1 mM)”. Besides, in test [3], the “FEC (Fully Effective Concentration)” value is on record as 0.100 mM.

With “2-oxo-2-(pyridin-2-yl)ethyl(2-chloro-1,3-thiazol-4-yl)(difluoro)acetate [compound 5740]”, the “Score (activity score of Minimal Effective Concentration, MEC)” value in test [1] is recorded as “very strong”. In addition, the “FEC (Fully Effective Concentration)” value in test [3] is reported as 0.050 mM.

Regarding `O=C(O)Cc1cc(Br)nc(Br)c1` [compound 689, 2-(2,6-dibromopyridin-4-yl)acetic acid], the “Score (activity score of Minimal Effective Concentration, MEC)” value in test [1] was “Moderate (0.1 mM)”. Also, the “Score (test material causing more than 85% of Growth Inhibition or irreversible plant damage)” value in test [2] (soil application) is given as “moderate (0.5)”.

For `CONCCc1cc(Cl)sc1Cl` [compound 5670, 2-(2,5-dichlorothiophen-3-yl)-N-methoxyethan-1-amine], the “Score (activity score of Minimal Effective Concentration, MEC)” value in test [1] was “Moderate (0.1 mM)”. Besides, the “Score (test material causing more than 85% of Growth Inhibition or irreversible plant damage)” value in test [2] (soil application) is “moderate (0.5)”.

As to “difluoro(6-fluoropyridin-2-yl)acetic acid [compound 6664]”, the “Score (activity score of Minimal Effective Concentration, MEC)” value in test [1] was “Strong (0.01 mM)”. Moreover, in test [2] (soil application), the “Score (test material causing more than 85% of Growth Inhibition or irreversible plant damage)” value was “strong (0.01 to 0.05)”.

In the case of `COC(=O)C(Cl)c1cc(Cl)sc1Cl` (centres unmarked) [compound 5656, methyl 2-chloro-2-(2,5-dichlorothiophen-3-yl)acetate], the “Score (test material causing more than 85% of Growth Inhibition or irreversible plant damage)” value in test [2] (soil application) is given as “moderate (0.5)”.

Take `CC(=O)NCCc1nc(Cl)sc1Cl` [compound 5650, N-[2-(2,5-dichloro-1,3-thiazol-4-yl)ethyl]acetamide]: in test [2] (soil application), the “Score (test material causing more than 85% of Growth Inhibition or irreversible plant damage)” value was “moderate (0.5)”.

For the molecule “[6-chloro-5-(trifluoromethyl)pyridin-2-yl](difluoro)acetic acid [compound 6671]”, the “Score (activity score of Minimal Effective Concentration, MEC)” value in test [1] is listed as “Strong (0.01 mM)”. Besides, in test [2] (soil application), the “Score (test material causing more than 85% of Growth Inhibition or irreversible plant damage)” value is reported as “strong (0.01 to 0.05)”.

For `CCOC(=O)Cc1nc(Br)sc1C` [compound 5661, ethyl 2-(2-bromo-5-methyl-1,3-thiazol-4-yl)acetate], in test [1], the “Score (activity score of Minimal Effective Concentration, MEC)” value was “Moderate (0.1 mM)”. For the same molecule, the “Score (test material causing more than 85% of Growth Inhibition or irreversible plant damage)” value in test [2] (foliar application) and in test [2] (soil application) was “moderate (0.5)” throughout.

Take `O=C(O)C(O)Cc1ccnc(Br)c1` (centres unmarked) [compound 680, 3-(2-bromopyridin-4-yl)-2-hydroxypropanoic acid]: the “Score (activity score of Minimal Effective Concentration, MEC)” value in test [1] is recorded as “Weak (Higher than 0.1 mM)”.
